Experimental data from paper PMC8130708 (Journal of medicinal chemistry, 2021).
Entries after “also recorded” stand apart in the source; their conditions may differ.

Key:
NSD2-PWWP1 [1] = target: T1, NSD2-PWWP1 (Homo sapiens, UniProt O96028); assay type: binding; details: for potency on NSD2-PWWP1, SAR statement in words: relative to parent compound 2 or 3, Tables 1 and 2 (images, DSLS/SPR)
T1 sequence (O96028 222-286 limits assumed): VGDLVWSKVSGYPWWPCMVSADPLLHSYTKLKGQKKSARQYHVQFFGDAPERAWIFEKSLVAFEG

NSD2-PWWP1 [2] = target: T2, NSD2-PWWP1 (Homo sapiens, UniProt O96028); test: Differential static light scattering; assay type: binding; details: read-out: increase of melting temperature of N-terminal PWWP domain of NSD2
T2 sequence (O96028 211-350): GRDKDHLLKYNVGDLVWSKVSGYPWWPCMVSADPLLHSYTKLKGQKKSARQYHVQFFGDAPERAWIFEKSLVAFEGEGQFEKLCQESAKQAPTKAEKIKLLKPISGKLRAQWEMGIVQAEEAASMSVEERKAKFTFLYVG

PWWP domains = details: DSLS

| SMILES | potency on NSD2-PWWP1, SAR statement in words (NSD2-PWWP1 [1]) | other results |
| --- | --- | --- |
| COc1ccc(C2CCCN2C(=O)c2ccc(C#N)cc2)cc1 (centres unmarked) [Compound 2b] | no significant effect | – |
| O=C(c1ccccc1)N1CCCC1c1ccccc1 (centres unmarked) [Compound 2h] | abolished activity | – |
| N#Cc1ccc(C(C(N)=O)N2CCC2c2ccc(Cl)cc2)cc1 (centres unmarked) [Compound 1] | – | ΔTm at 400 µM (NSD2-PWWP1 [2]): 4 °C; binding to six other PWWP-containing proteins (PWWP domains; compound at 400 μM (Table S2)): did not bind |
| CN(Cc1ccc(F)cc1)C(=O)c1ccc(C#N)cc1 [Compound 3a] | much weaker or completely inactive | – |
| N#Cc1ccc(C(=O)N(Cc2ccc(F)cc2)C2CC2)cc1 [Compound 3] | – | fold more potent than compound 1 (NSD2-PWWP1 [1]; ratio of SPR Kd values): 6; fold more potent than compound 2 (NSD2-PWWP1 [1]; ratio of SPR Kd values): 25 |
| N#Cc1ccc(C(=O)NCc2ccc(F)cc2)cc1 [Compound 3b] | much weaker or completely inactive | – |
| N#Cc1ccc(C(=O)N2CCCC2c2ccccc2)cc1 (centres unmarked) [Compound 2a] | improved potency | – |
| N#Cc1ccc(C(=O)N(Cc2cccs2)C2CC2)cc1 [Compound 3f] | – | binding / effect on melting temperature in a panel of 10 PWWP domains (PWWP domains; compound at 100 μM (Figure 2C)): only bound NSD2-PWWP1; also recorded: only affects the melting temperature of NSD2-PWWP1 |
| Cc1ccc(C(=O)N2CCCC2c2ccc(Cl)cc2)cc1 (centres unmarked) [Compound 2i] | abolished activity | – |
